In patent US10336697B2, “Spiro[cyclobutane-1,3′-indolin]-2′-one derivatives as bromodomain inhibitors” (Orion Corporation, priority 2015, dated 2019):

target: Bet BRD4 full length bromo-domain protein (Homo sapiens, UniProt O60885); assay: Bet bromodomain TR-FRET assay (displacement of acetyl histone peptide); type: binding; details: Bet BRD4 full length bromodomain protein, 300 nM acetyl histone peptide substrate, read-out: IC50

SMILES	IC50 [µM]
CC(C)Oc1ccccc1S(=O)(=O)Nc1cc(OC2CCN(C)CC2)c2c(c1)C1(CCC1)C(=O)N2 [Compound-184, 2-Isopropoxy-N-(7′-((1-methylpiperidin-4-yl)oxy)-2′-oxospiro[cyclobutane-1,3′-indolin]-5′-yl)benzenesulfonamide]	< 0.6
CN1CCC(Oc2cc(NS(=O)(=O)c3ccc(Cl)cc3F)cc3c2NC(=O)C32CCC2)CC1 [Compound 130, 4-Chloro-2-fluoro-N-(7′-((1-methylpiperidin-4-yl)oxy)-2′-oxospiro[cyclobutane-1,3′-indolin]-5′-yl)benzenesulfonamide]	< 0.6
COc1ccccc1S(=O)(=O)Nc1cc(Cc2cccc(F)c2)c2c(c1)C1(CCC1)C(=O)N2 [Compound 10, N-(7′-(3-fluorobenzyl)-2′-oxospiro[cyclobutane-1,3′-indolin]-5′-yl)-2-methoxybenzenesulfonamide]	< 0.6
COc1ccccc1S(=O)(=O)Nc1cc(OCC2CN(C)C2)c2c(c1)C1(CCC1)C(=O)N2 [Compound-190, 2-Methoxy-N-(7′-((1-methylazetidin-3-yl)methoxy)-2′-oxospiro [cyclobutane-1,3′-indolin]-5′-yl)benzenesulfonamide]	< 0.6
O=C1Nc2c(NC3CCNCC3F)cc(NS(=O)(=O)c3ccc(F)cc3F)cc2C12CCC2 (stereo not drawn) [Compound 102, 2,4-Difluoro-N-(7′-((3-fluoropiperidin-4-yl)amino)-2′-oxospiro[cyclobutane-1,3′-indolin]-5′-yl)benzenesulfonamide]	0.6 to 1
COc1ccc(F)cc1S(=O)(=O)Nc1cc(OC2CCN(C)CC2)c2c(c1)C1(CCC1)C(=O)N2 [Compound 129, 5-Fluoro-2-methoxy-N-(7′-((1-methylpiperidin-4-yl)oxy)-2′-oxospiro[cyclobutane-1,3′-indolin]-5′-yl)benzenesulfonamide]	< 0.6
CN(C)CCOc1cc(NS(=O)(=O)c2ccc(Cl)cc2F)cc2c1NC(=O)C21CCC1 [Compound 163, 4-Chloro-N-(7′-(2-(dimethylamino)ethoxy)-2′-oxospiro[cyclobutane-1,3′-indolin]-5′-yl)-2-fluorobenzenesulfonamide]	< 0.6
CCN(C)CCOc1cc(NS(=O)(=O)c2ccccc2OC)cc2c1NC(=O)C21CCC1 [compound 196, N-(7′-(2-(ethyl(methyl)amino)ethoxy)-2′-oxospiro[cyclobutane-1,3′-indolin]-5′-yl)-2-methoxybenzenesulfonamide]	< 0.6
COc1ccccc1S(=O)(=O)Nc1cc(C(C)c2ccccc2)c2c(c1)C1(CCC1)C(=O)N2 (stereo not drawn) [Compound 113, 2-Methoxy-N-(2′-oxo-7′-(1-phenylethyl)spiro [cyclobutane-1,3′-indolin]-5′-yl)benzenesulfonamide]	< 0.6
COc1ccccc1S(=O)(=O)Nc1cc(OCCN2CCOCC2)c2c(c1)C1(CCC1)C(=O)N2 [Compound 168, 2-Methoxy-N-(7′-(2-morpholinoethoxy)-2′-oxospiro[cyclobutane-1,3′-indolin]-5′-yl)benzenesulfonamide]	< 0.6
COc1ccccc1S(=O)(=O)Nc1cc(C(C)c2cccnc2)c2c(c1)C1(CCC1)C(=O)N2 (stereo not drawn) [Compound 122, 2-Methoxy-N-(2′-oxo-7′-(1-(pyridin-3-yl)ethyl)spiro[cyclobutane-1,3′-indolin]-5′-yl)benzenesulfonamide]	< 0.6
COc1ccccc1S(=O)(=O)Nc1cc(C(C)c2ccccn2)c2c(c1)C1(CCC1)C(=O)N2 (stereo not drawn) [Compound 123, 2-Methoxy-N-(2′-oxo-7′-(1-(pyridin-2-yl)ethyl)spiro [cyclobutane-1,3′-indolin]-5′-yl)benzenesulfonamide]	< 0.6
O=C1Nc2c(NC3CCOCC3)cc(NS(=O)(=O)c3ccc(F)cc3F)cc2C12CCC2 [Compound 18, 2,4-Difluoro-N-(2′-oxo-7′-((tetrahydro-2H-pyran-4-yl)amino)spiro[cyclobutane-1,3′-indolin]-5′-yl)benzenesulfonamide]	< 0.6
O=C(NC1CCCNC1)c1cc(NS(=O)(=O)c2ccc(F)cc2F)cc2c1NC(=O)C21CCC1 (single isomer, unassigned) [Compound 67, 5′-(2,4-Difluorophenylsulfonamido)-2′-oxo-N-(piperidin-3-yl)spiro[cyclobutane-1,3′-indoline]-7′-carboxamide]	0.6 to 1
O=C(Nc1cc(NS(=O)(=O)c2ccc(F)cc2F)cc2c1NC(=O)C21CCC1)C1CCOCC1 [Compound 46, N-(5′-(2,4-Difluorophenylsulfonamido)-2′-oxospiro[cyclobutane-1,3′-indolin]-7′-yl)tetrahydro-2H-pyran-4-carboxamide]	> 1
CN1CCc2ccc(-c3cc(NS(=O)(=O)c4ccc(F)cc4F)cc4c3NC(=O)C43CCC3)cc2C1=O [Compound 6, 2,4-Difluoro-N-(7′-(2-methyl-1-oxo-1,2,3,4-tetrahydroisoquinolin-7-yl)-2′-oxospiro[cyclobutane-1,3′-indolin]-5′-yl)benzenesulfonamide]	0.6 to 1

SMILES	IC50 [µM]
CC(=O)Nc1cc(NS(=O)(=O)c2ccc(F)cc2F)cc2c1NC(=O)C21CCC1 [Compound 63, N-(5′-((2,4-difluorophenyl)sulfonamido)-2′-oxospiro[cyclobutane-1,3′-indolin]-7′-yl)acetamide]	0.6 to 1
CC(C)(O)C1CCN(C(=O)c2cc(NS(=O)(=O)c3ccc(F)cc3F)cc3c2NC(=O)C32CCC2)CC1 [Compound 59, 2,4-Difluoro-N-(7′-(4-(2-hydroxypropan-2-yl)piperidine-1-carbonyl)-2′-oxospiro[cyclobutane-1,3′-indolin]-5′-yl)benzenesulfonamide]	> 1
CCOc1ccccc1S(=O)(=O)Nc1cc(C(=O)NC2CCN(C)CC2)c2c(c1)C1(CCC1)C(=O)N2 [Compound 84, 5′-(2-Ethoxyphenylsulfonamido)-N-(1-methylpiperidin-4-yl)-2′-oxospiro[cyclobutane-1,3′-indoline]-7′-carboxamide]	0.6 to 1
COc1ccccc1S(=O)(=O)Nc1cc(C(C)c2nccs2)c2c(c1)C1(CCC1)C(=O)N2 (stereo not drawn) [Compound 177, 2-Methoxy-N-(2′-oxo-7′-(1-(thiazol-2-yl)ethyl)spiro[cyclobutane-1,3′-indolin]-5′-yl)benzenesulfonamide]	< 0.6
CN1CCC(NC(=O)c2cc(NS(=O)(=O)c3ccc(F)cc3F)cc3c2NC(=O)C32CCC2)CC1 [Compound 56, 5′-(2,4-Difluorophenylsulfonamido)-N-(1-methylpiperidin-4-yl)-2′-oxospiro[cyclobutane-1,3′-indoline]-7′-carboxamide]	< 0.6
CN1CCC(Oc2cc(NS(=O)(=O)c3ccccc3Cl)cc3c2NC(=O)C32CCC2)CC1 [Compound 133, 2-Chloro-N-(7′-((1-methylpiperidin-4-yl)oxy)-2′-oxospiro[cyclobutane-1,3′-indolin]-5′-yl)benzenesulfonamide]	< 0.6
CN1CCC(NC(=O)c2cc(NS(=O)(=O)c3ccc(C#N)cc3F)cc3c2NC(=O)C32CCC2)CC1 [Compound 81, 5′-((4—Cyano-2-fluorophenyl)sulfonamido)-N-(1-methylpiperidin-4-yl)-2′-oxospiro[cyclobutane-1,3′-indoline]-7′-carboxamide]	> 1
CCOC(=O)N1CCC(Nc2cc(NS(=O)(=O)c3ccc(F)cc3F)cc3c2NC(=O)C32CCC2)CC1 [Compound 22, Ethyl 4-((5′-(2,4-difluorophenylsulfonamido)-2′-oxospiro [cyclobutane-1,3′-indolin]-7′-yl)amino)piperidine-1-carboxylate]	0.6 to 1
CN1CCC(Oc2cc(NC(=O)/C=C/c3ccccc3)cc3c2NC(=O)C32CCC2)CC1 [compound 219, N-(7′-((1-methylpiperidin-4-yl)oxy)-2′-oxospiro[cyclobutane-1,3′-indolin]-5′-yl)cinnamamide]	< 0.6
O=C1Nc2c(-c3ccc4nc[nH]c4c3)cc(NS(=O)(=O)c3ccc(F)cc3F)cc2C12CCC2 [Compound 8, N-(7′-(1H-benzo[d]imidazol-6-yl)-2′-oxospiro[cyclobutane-1,3′-indolin]-5′-yl)-2,4-difluorobenzenesulfonamide]	0.6 to 1
CCN(c1cc(OC2CCN(C)CC2)c2c(c1)C1(CCC1)C(=O)N2)S(=O)(=O)c1ccccc1OC [compound 179, N-ethyl-2-methoxy-N-(7′-((1-methylpiperidin-4-yl)oxy)-2′-oxospiro[cyclobutane-1,3′-indolin]-5′-yl)benzenesulfonamide]	> 1
O=C1Nc2c(Oc3cc[nH]c(=O)c3)cc(NS(=O)(=O)c3ccc(Cl)cc3F)cc2C12CCC2 [Compound-212, 4-Chloro-2-fluoro-N-(2′-oxo-7′-((2-oxo-1,2-dihydropyridin-4-yl)oxy)spiro[cyclobutane-1,3′-indolin]-5′-yl)benzenesulfonamide]	< 0.6
CN1CCC(Oc2cc(NS(=O)(=O)c3ccc(Cl)cc3F)cc3c2NC(=O)C32CCC2)C1 (stereo not drawn) [Compound 138, 4-Chloro-2-fluoro-N-(7′-((1-methylpyrrolidin-3-yl)oxy)-2′-oxospiro[cyclobutane-1,3′-indolin]-5′-yl)benzenesulfonamide]	< 0.6
O=C1Nc2c(-c3cccc(O)c3)cc(NS(=O)(=O)c3ccc(F)cc3F)cc2C12CCC2 [Compound 1, 2,4-difluoro-N-(7′-(3-hydroxyphenyl)-2′-oxospiro[cyclobutane-1,3′-indolin]-5′-yl)benzenesulfonamide]	< 0.6
O=C(Nc1cc(C2CC2)c2c(c1)C1(CCC1)C(=O)N2)c1cccnc1N1CCOCC1 [Compound-223, N-(7′-cyclopropyl-2′oxospiro[cyclobutane-1,3′-indolin]-5′-yl)-2-morpholinonicotinamide]	> 1
O=C1Nc2c(CO)cc(NS(=O)(=O)c3ccc(F)cc3F)cc2C12CCC2 [Compound 69, 2,4-Difluoro-N-(7′-(hydroxymethyl)-2′-oxospiro[cyclobutane-1,3′-indolin]-5′-yl)benzenesulfonamide]	< 0.6

same assay, conditions: IC50, Bet BRD4 full length bromodomain protein, 300 nM acetyl histone peptide substrate

SMILES	IC50 [µM]
COc1ccccc1S(=O)(=O)Nc1cc(OC(=O)N2CCN(C)CC2)c2c(c1)C1(CCC1)C(=O)N2 [Compound 169, 5′-((2-Methoxyphenyl)sulfonamido)-2′-oxospiro[cyclobutane-1,3′-indolin]-7′-yl 4-methylpiperazine-1-carboxylate]	< 0.6
